Values of other authors, collected in US20150087671A1, “LOW BURST SUSTAINED RELEASE LIPOPHILIC AND BIOLOGIC AGENT COMPOSITIONS” (Micell Technologies, Inc., priority 2012, published 2015).

Tests used:
mTOR = mTOR (Homo sapiens, UniProt P42345)
PI3K/mTOR = settings: read-out: IC50, dual PI3K/mTOR inhibitor (target not specified further)
[1] = system: phosphorylation of AKT T308

Structure (SMILES): CO[C@H]1C[C@@H]2CC[C@@H](C)[C@@](O)(O2)C(=O)C(=O)N2CCCC[C@H]2C(=O)O[C@H]([C@H](C)C[C@@H]2CC[C@@H](OCCO)[C@H](OC)C2)CC(=O)[C@H](C)/C=C(\C)[C@@H](O)[C@@H](OC)C(=O)[C@H](C)C[C@H](C)/C=C/C=C/C=C/1C [Everolimus, 40-O-(2-Hydroxyethyl)rapamycin]
- IC50 (mTOR): 0.63 nM

Structure (SMILES): COc1ccc(-c2ccc3ncc4c(c3c2)n(-c2ccc(N3CCNCC3)c(C(F)(F)F)c2)c(=O)n4C)cn1 [NVP-BGT226]
- IC50 (PI3K/mTOR): 1 nM

Structure (SMILES): COc1ccc(-c2cc3c(C)nc(N)nc3n([C@H]3CC[C@H](OCCO)CC3)c2=O)cn1 [PF-04691502]
- IC50 [1]: 7.5 nM

Structure (SMILES): Nc1ncnc2c1c(-c1cnc3[nH]ccc3c1)nn2C1CCCC1 [PP121]
- IC50 (PDGFR): 2 nM

Structure (SMILES): COc1ccc(COc2cc3oc(=O)c4cc(C(C)O)ccc4c3cc2OC)cc1 (stereo not shown) [Palomid 529]
- GI50 (NCI-60 cell lines panel): < 35000 nM

Structure (SMILES): CO[C@H]1C[C@@H]2CC[C@@H](C)[C@@](O)(O2)C(=O)C(=O)N2CCCC[C@H]2C(=O)O[C@H]([C@H](C)C[C@@H]2CC[C@@H](O)[C@H](OC)C2)CC(=O)[C@H](C)/C=C(\C)[C@@H](O)[C@@H](OC)C(=O)[C@H](C)C[C@H](C)/C=C/C=C/C=C/1C [Rapamycin, rapamycin]
- bioavailability (Rapamune oral tablets or solution): < 14%
- blood concentrations (once daily oral dosing, immunosuppressive dose 2 or 5 mg daily): 6 to 50 ng/mL

Structure (SMILES): c1cncc(CN2CCC(n3ncc4c(N5CCOCC5)nc(-c5ccc6[nH]ccc6c5)nc43)CC2)c1 [WAY-600]
- IC50 (mTOR): 9 nM

Structure (SMILES): COC(=O)Nc1ccc(-c2nc(N3CCOCC3)c3cnn(C4CCN(C(=O)OC)CC4)c3n2)cc1 [WYE-354]
- IC50 (mTOR): 5 nM

Structure (SMILES): CNC(=O)Nc1ccc(-c2nc(N3CC4CCC(C3)O4)c3cnn(C4CCC5(CC4)OCCO5)c3n2)cc1 [WYE-125132]
- IC50 (mTOR): 0.19 nM
